# Results from US5378838A, “Benzodiazepine cholecystokinin antagonists” (Merck & Co., Inc., priority 1993, dated 1995).
# pIC50: −log10 of the molar value. Like-named read-outs stand apart in the source and are kept apart here.
# Key:
# CCK receptor (pancreas) = target: T1, CCK receptor (pancreas) (Rattus norvegicus, UniProt P30551); assay: CCK Receptor Binding (Pancreas), inhibition of 125I-CCK-8 binding; parameters: species or system rat (male Sprague-Dawley)
# T1 construct: The whole pancreas was dissected free of fat tissue and was homogenized; from tissue; host or cells: whole pancreas membranes of male Sprague-Dawley rats
# T1 sequence (P30551 1-444): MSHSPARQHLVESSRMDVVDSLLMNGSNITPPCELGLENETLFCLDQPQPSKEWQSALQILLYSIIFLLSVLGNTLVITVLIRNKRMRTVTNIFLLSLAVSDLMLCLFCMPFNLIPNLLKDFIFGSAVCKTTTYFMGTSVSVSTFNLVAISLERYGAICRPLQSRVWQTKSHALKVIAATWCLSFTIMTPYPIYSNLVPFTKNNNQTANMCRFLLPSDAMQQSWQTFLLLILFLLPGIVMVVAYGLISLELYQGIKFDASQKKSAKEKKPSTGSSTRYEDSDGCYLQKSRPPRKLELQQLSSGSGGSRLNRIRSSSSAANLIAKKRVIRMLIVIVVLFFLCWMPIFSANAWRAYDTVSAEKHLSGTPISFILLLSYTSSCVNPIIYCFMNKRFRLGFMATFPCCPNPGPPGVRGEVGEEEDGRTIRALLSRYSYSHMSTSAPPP
# Experimental: 1. CCK Receptor Binding (Pancreas)
# Male Sprague-Dawley rats (150-200 g) were sacrificed by decapitation. The whole pancreas was dissected free of fat tissue and was homogenized in 25 volumes of ice-cold 10 mM Hepes buffer with 0.1% soya bean trypsin inhibitor (pH 7.4 at 25° C.) with a Kinematica Polytron. The homogenates were centrifuged at 47,800 g for 10 min. Pellets were resuspended in 10 volumes of binding assay buffer (20 mM Hepes, 1 mM EGTA, 5 mM MgCl2, 150 mM NaCl, bacitracin 0.25 mg/ml, soya bean trypsin inhibitor 0.1 mg/ml, and bovine serum albumin 2 mg/ml, pH 6.5 at 25° C.) using a teflon homogenizer, 15 strokes at 500 rpm. The homogenate was further diluted in binding assay buffer to give a final concentration of 0.5 mg original wet weight/l ml buffer. […] All assays were run in duplicate. The reaction mixtures were incubated at 25° C. for 2 hours and the reaction terminated by rapid filtration (Brandell 24 well cell harvester) over Whatman GF/C filters, washing 3×4 mls with ice-cold 100 mM NaCl. The radioactivity on the filters was counted with a LKB gamma counter.
# Drug displacement studies were performed with at least 10 concentrations of compounds of formula 1 and the IC50 values were determined by regression analysis.
# CCK receptor (brain) = target: T2, CCK receptor (brain) (Cavia porcellus, UniProt H0VZC5); assay: CCK Receptor Binding (Brain), inhibition of 125I-CCK-8 binding; parameters: species or system guinea pig (male Hartley); conditions: guinea pig cortex, 50 pM 125I-CCK-8, pH 6.5, 25° C., 2 hours
# T2 construct: the cortex was removed and homogenized in 25 mL ice-cold 0.32M sucrose; from tissue; host or cells: cortex P2 membranes of male Hartley guinea pigs
# T2 sequence (H0VZC5 1-426): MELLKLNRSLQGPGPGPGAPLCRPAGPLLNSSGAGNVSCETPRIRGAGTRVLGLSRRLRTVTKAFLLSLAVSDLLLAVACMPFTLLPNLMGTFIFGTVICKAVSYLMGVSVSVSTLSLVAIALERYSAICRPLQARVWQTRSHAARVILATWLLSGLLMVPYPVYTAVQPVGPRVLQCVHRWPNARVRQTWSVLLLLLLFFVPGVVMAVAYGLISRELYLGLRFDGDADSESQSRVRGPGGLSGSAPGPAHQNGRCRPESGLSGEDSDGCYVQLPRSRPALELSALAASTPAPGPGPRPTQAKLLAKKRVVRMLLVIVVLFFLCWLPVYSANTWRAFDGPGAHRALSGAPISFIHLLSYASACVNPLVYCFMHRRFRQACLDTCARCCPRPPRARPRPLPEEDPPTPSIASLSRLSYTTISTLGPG
# Experimental: CCK-8 sulphated was radiolabelled and the binding was performed according to the description for the pancreas method with minor modifications.
# Male Hartley guinea pigs (300-500g) were sacrificed by decapitation and the cortex was removed and homogenized in 25 mL ice-cold 0.32M sucrose. The homogenates were centrifuged at 1000 g for 10 minutes and the resulting supernatant was recentrifuged at 20,000 g for 20 minutes. […] All assays were run in duplicate. The reaction mixtures were incubated at 25° C. for 2 hours and then the reaction was terminated on Whatman GF/C filters by rapid filtration (Brandell 24 well cell Harvester) with 3×5 ml washes of cold 100 mM NaCl. The radioactivity on the filters was then counted with a LKB gamma counter.
# Drug displacement studies were performed with at least 10 concentrations of compounds of formula 1 and the IC50 values were determined by regression analysis. IC50 refers to the concentration of the compound required to inhibit 50% of specific binding of ^125 I-CCK-8.
# [1] = read-out: IC50 125I-CCK Pancreas, rat pancreas, 50 pM 125I-CCK-8, pH 6.5, 25° C., 2 hours
# [2] = rat pancreas, 50 pM 125I-CCK-8, pH 6.5, 25° C., 2 hours, read-out: IC50 125I-CCK Pancreas
Compound,pIC50 (CCK receptor (pancreas)),pIC50 (CCK receptor (brain)),pIC50 (CCK receptor (pancreas); [1]),pIC50 (CCK receptor (pancreas); [2])
"COC(=O)[C@H](Cc1cccc(NC(=O)N[C@@H]2N=C(c3ccccc3)c3ccccc3N(C)C2=O)c1)NC(=O)OC(C)(C)C [Example 1, N-{(3R)-1,3-Dihydro-1-methyl-2-oxo-5-phenyl-1H-1,4-benzodiazepin-3-yl}-N'-{[3-((2S)-tertbutyloxycarbonylamino-2-methoxycarbonyl)ethylphenyl]urea}]",< 5.52,7.53,,
"COC(=O)[C@@H](N)Cc1cccc(NC(=O)N[C@@H]2N=C(c3ccccc3)c3ccccc3N(C)C2=O)c1 [Example 2, N-{(3R)-1,3-Dihydro-1-methyl-2-oxo-5-phenyl-1H-1,4-benzodiazepin-3-yl}-N'-{[3-((2S)-amino-2-methoxycarbonyl)ethylphenyl]-urea}]",< 5.52,6.94,,
"CN1C(=O)[C@H](NC(=O)Nc2cccc(C[C@H](N)C(=O)O)c2)N=C(c2ccccc2)c2ccccc21 [Example 3, N-{(3R)-1,3-Dihydro-1-methyl-2-oxo-5-phenyl-1H-1,4-benzodiazepin-3-yl}-N'-{[3-((2S)-amino-2-carboxy)ethylphenyl]-urea}]",,7.21,< 5.52,
"COC(=O)[C@H](Cc1cccc(NC(=O)N[C@@H]2N=C(C3CCCCC3)c3ccccc3N(C)C2=O)c1)NC(=O)OC(C)(C)C [Example 4, N-{(3R)-1,3-Dihydro-1-methyl-2-oxo-5-cyclohexyl-1H-1,4-benzodiazepin-3-yl}-N'-{[3-((2S)-tert-butyloxycarbonylamino-2-methoxycarbonyl)ethylphenyl]-urea}]",,8.41,,6.02
"COC(=O)[C@@H](N)Cc1cccc(NC(=O)N[C@@H]2N=C(C3CCCCC3)c3ccccc3N(C)C2=O)c1 [Example 5, N-{(3R)-1,3-Dihydro-1-methyl-2-oxo-5-cyclohexyl-1H-1,4-benzodiazepin-3-yl}-N'-{[3-((2S)-amino-2-methoxycarbonyl)ethylphenyl]-urea}]",,8.04,,6.03
"CN1C(=O)[C@H](NC(=O)Nc2cccc(C[C@H](N)C(=O)O)c2)N=C(C2CCCCC2)c2ccccc21 [Example 6, N-{(3R)-1,3-Dihydro-1-methyl-2-oxo-5-cyclohexyl-1H-1,4-benzodiazepin-3-yl}-N'-{[3-((2S )amino-2-carboxy)ethylphenyl]-urea}]",,8.96,,5.75
"COC(=O)[C@@H](NC(=O)OC(C)(C)C)c1cccc(NC(=O)N[C@@H]2N=C(c3ccccc3)c3ccccc3N(C)C2=O)c1 [Example 7, N-{(3R)-1,3-Dihydro-1-methyl-2-oxo-5-phenyl-1H-1,4-benzodiazepin-3-yl}-N'-{[3-((1S)-tert-butyloxycarbonylamino-1-methoxycarbonyl)methylphenyl]-urea}]",< 5.52,5.70,,
"COC(=O)[C@@H](N)c1cccc(NC(=O)N[C@@H]2N=C(c3ccccc3)c3ccccc3N(C)C2=O)c1 [Example 8, N-{(3R)-1,3-Dihydro-1-methyl-2-oxo-5-phenyl-1H-1,4-benzodiazepin-3-yl}-N'-{[3-((1S )-amino-1-methoxycarbonyl)methylphenyl]-urea}]",< 5.52,6.02,,
"CN1C(=O)[C@H](NC(=O)Nc2cccc([C@H](N)C(=O)O)c2)N=C(c2ccccc2)c2ccccc21 [Example 9, N-{(3R)-1,3-Dihydro-1-methyl-2-oxo-5-phenyl-1H-1,4-benzodiazepin-3-yl}-N'-{[3-((1S)-amino-1-carboxy)methylphenyl]-urea}]",< 5.52,5.88,,
"CN1C(=O)[C@H](NC(=O)Nc2cccc([C@@H](N)C(=O)O)c2)N=C(c2ccccc2)c2ccccc21 [Example 10, N-{(3R)-1,3-Dihydro-1-methyl-2-oxo-5-phenyl-1H-1,4-benzodiazepin-3-yl}-N'-{[3-((1R)-amino-1-carboxy)methylphenyl]-urea}]",< 5.52,5.44,,
"COC(=O)CC(NC(=O)OC(C)(C)C)c1cccc(NC(=O)N[C@@H]2N=C(c3ccccc3)c3ccccc3N(C)C2=O)c1 (stereo partly drawn) [Example 11, N-{(3R)-1,3-Dihydro-1-methyl-2-oxo-5-phenyl-1 H-1,4-benzodiazepin-3-yl}-N'-{[3-((1R,S)-tert-butyloxycarbonylamino-2-methoxycarbonyl)ethylphenyl]-urea}]",< 5.52,6.41,,
"COC(=O)CC(N)c1cccc(NC(=O)N[C@@H]2N=C(c3ccccc3)c3ccccc3N(C)C2=O)c1 (stereo partly drawn) [Example 12, N-{(3R)-1,3-Dihydro-1-methyl-2-oxo-5-phenyl-1H-1,4-benzodiazepin-3-yl}-N,- {[3-((1R,S)-amino-2-methoxycarbonyl)ethylphenyl]-urea}]",,< 5.52,,
"CN1C(=O)[C@H](NC(=O)Nc2cccc(C(N)CC(=O)O)c2)N=C(c2ccccc2)c2ccccc21 (stereo partly drawn) [Example 13, N-{(3R)-1,3-Dihydro-1-methyl-2-oxo-5-phenyl-1H-1,4-benzodiazepin-3-yl}-N'-{[3-((1R,S)-amino-2-carboxy)ethylphenyl]-urea}]",< 5.52,< 5.52,,
"COC(=O)C1(NC(=O)OC(C)(C)C)CCc2cccc(NC(=O)N[C@@H]3N=C(c4ccccc4)c4ccccc4N(C)C3=O)c2C1 (stereo partly drawn) [Example 14, N-{(3R)-1,3-Dihydro-1-methyl-2-oxo-5-phenyl-1H-1,4-benzodiazepin-3-yl}-N'-{[8-(methyl-2(R,S)-tert-butyloxycarbonylamino-1,2,3,4-tetrahydro-2-naphthoate)]-urea}]",,6.19,< 5.52,
"COC(=O)C1(NC(=O)OC(C)(C)C)CCc2ccc(NC(=O)N[C@@H]3N=C(c4ccccc4)c4ccccc4N(C)C3=O)cc2C1 (stereo partly drawn) [Example 15, N-{(3R)-1,3-Dihydro-1-methyl-2-oxo-5-phenyl-1H-1,4-benzodiazepin-3-yl}-N'-{[7-(methyl-2-(R,S)-tert-butyloxycarbonylamino-1,2,3,4-tetrahydro-2-naphthoate)]-urea}]",,6.90,< 5.52,
"COC(=O)C1(N)CCc2ccc(NC(=O)N[C@@H]3N=C(c4ccccc4)c4ccccc4N(C)C3=O)cc2C1 (stereo partly drawn) [Example 16, N-{(3R)-1,3-Dihydro-1-methyl-2-oxo-5-phenyl-1H-1,4-benzodiazepin-3-yl}-N'-{[7-(methyl-2-(R,S)-amino-1,2,3,4-tetrahydro-2-naphthoate)]-urea}]",< 5.52,6.83,,
"CN1C(=O)[C@H](NC(=O)Nc2ccc3c(c2)CC(N)(C(=O)O)CC3)N=C(c2ccccc2)c2ccccc21 (stereo partly drawn) [Example 17, N-{(3R)-1,3-Dihydro-1-methyl-2-oxo-5-phenyl-1H-1,4-benzodiazepin-3-yl}-N'-{[7-(2-(R,S)amino-1,2,3,4-tetrahydro-2-naphthoic acid)]-urea}]",< 5.52,7.55,,
"COC(=O)C1(NC(=O)OC(C)(C)C)CCc2cc(NC(=O)N[C@@H]3N=C(c4ccccc4)c4ccccc4N(C)C3=O)ccc2C1 (stereo partly drawn) [Example 18, N-{(3R)-1,3-Dihydro-1-methyl-2-oxo-5-phenyl-1H-1,4-benzodiazepin-3-yl}-N'-{[6-(methyl-2-(R,S)-tert-butyloxycarbonylamino-1,2,3,4-tetrahydro-2-naphthoate)]-urea}]",,< 5.52,,
COC(=O)C1(N)CCc2cc(NC(=O)N[C@@H]3N=C(c4ccccc4)c4ccccc4N(C)C3=O)ccc2C1 (stereo partly drawn) [Example 19],< 5.52,< 5.52,,
